Source: ChEMBL document CHEMBL5528034, “Fragment-to-Lead Medicinal Chemistry Publications in 2022” (J Med Chem, 2024)

Key:
[1] = biological target: Transcriptional enhancer factor TEF-1 (Homo sapiens, UniProt P28347)
Description: Binding affinity to human recombinant N-terminal His-tagged TEAD1 (residues 209 to 424) expressed in Escherichia coli BL21 (DE3) assessed as dissociation constant

[2] = biological target: Replicase polyprotein 1ab (Severe acute respiratory syndrome coronavirus 2, UniProt P0DTD1)
Description: Binding affinity to SARS-CoV-2 Main protease assessed as dissociation constant by SPR analysis

Interleukin-1 beta = Interleukin-1 beta (Homo sapiens, UniProt P01584); experiment: Binding affinity to Interleukin-1beta (unknown origin) assessed as dissociation constant
Chain of Interleukin-1 beta (P01584 117-269 limits assumed): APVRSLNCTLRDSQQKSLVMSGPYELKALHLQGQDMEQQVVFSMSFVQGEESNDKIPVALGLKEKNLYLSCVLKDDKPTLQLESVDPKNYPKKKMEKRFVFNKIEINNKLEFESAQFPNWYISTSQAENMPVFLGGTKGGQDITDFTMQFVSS

Pantothenate synthetase = biological target: T1, Pantothenate synthetase (Mycobacterium tuberculosis, UniProt P9WIL5); experiment: Inhibition of Mycobacterium tuberculosis H37Ra pantothenate synthetase
T1 sequence (P9WIL5 whole entry): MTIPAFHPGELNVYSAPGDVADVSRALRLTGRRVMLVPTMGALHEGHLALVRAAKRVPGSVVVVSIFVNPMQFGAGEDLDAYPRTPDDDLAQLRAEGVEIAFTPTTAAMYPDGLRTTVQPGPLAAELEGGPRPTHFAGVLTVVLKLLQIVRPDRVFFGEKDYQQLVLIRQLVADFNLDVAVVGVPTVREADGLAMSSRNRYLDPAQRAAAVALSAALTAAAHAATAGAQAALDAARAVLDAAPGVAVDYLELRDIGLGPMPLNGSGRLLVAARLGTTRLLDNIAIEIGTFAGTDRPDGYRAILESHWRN

[3] = biological target: Transcriptional enhancer factor TEF-4 (Homo sapiens, UniProt Q15562)
Chain of Transcriptional enhancer factor TEF-4 (Q15562 whole entry): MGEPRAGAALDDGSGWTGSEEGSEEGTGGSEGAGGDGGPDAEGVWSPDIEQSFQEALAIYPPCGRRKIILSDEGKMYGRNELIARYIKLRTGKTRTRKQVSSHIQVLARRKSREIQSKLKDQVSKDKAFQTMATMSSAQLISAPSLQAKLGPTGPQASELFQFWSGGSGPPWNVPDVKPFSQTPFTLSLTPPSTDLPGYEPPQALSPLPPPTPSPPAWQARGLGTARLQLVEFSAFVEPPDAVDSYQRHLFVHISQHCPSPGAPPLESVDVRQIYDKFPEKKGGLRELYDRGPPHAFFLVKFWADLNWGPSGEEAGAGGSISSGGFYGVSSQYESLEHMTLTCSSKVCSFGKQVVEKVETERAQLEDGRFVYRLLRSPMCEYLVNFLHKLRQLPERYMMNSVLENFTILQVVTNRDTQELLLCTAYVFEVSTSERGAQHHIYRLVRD
Description: Binding affinity to human recombinant N-terminal His-tagged TEAD2 (residues 209 to 424) expressed in Escherichia coli BL21 (DE3) assessed as dissociation constant

Chain of Transcriptional enhancer factor TEF-1 (P28347 whole entry): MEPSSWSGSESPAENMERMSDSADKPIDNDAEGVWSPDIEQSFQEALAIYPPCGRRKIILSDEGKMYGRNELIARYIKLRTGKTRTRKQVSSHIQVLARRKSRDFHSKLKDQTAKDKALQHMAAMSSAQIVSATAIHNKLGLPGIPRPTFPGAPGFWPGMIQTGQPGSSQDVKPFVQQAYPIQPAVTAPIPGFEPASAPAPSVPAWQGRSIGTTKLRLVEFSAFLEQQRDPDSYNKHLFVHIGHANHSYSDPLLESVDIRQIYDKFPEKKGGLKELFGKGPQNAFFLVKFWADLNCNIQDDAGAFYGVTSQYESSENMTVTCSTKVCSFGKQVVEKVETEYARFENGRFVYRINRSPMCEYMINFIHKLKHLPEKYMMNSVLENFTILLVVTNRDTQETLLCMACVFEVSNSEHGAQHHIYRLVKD

In the case of `C=C(F)C(=O)N1C[C@@H](n2cc(-c3cccnc3)nn2)[C@H](OCc2ccc(C(F)(F)F)cc2)C1`, the Kd [1] is reported as 170 nM.
Molecule `O=C1N[C@@H](Cc2ccccc2)C(=O)N1c1cncc(F)c1` has a Kd [2] of 23000 nM.
Work on `O=C(O)c1cc(NCc2ccccc2OCCOCCOCCOc2ccccc2CNc2cc(C(=O)O)cc(-c3ccnc4ccccc34)c2)cc(-c2ccnc3ccccc23)c1` yielded a Kd (Interleukin-1 beta) of 40 nM.
Work on `N#Cc1c(N)ncnc1-c1cnn(Cc2ccc(F)c(F)c2)c1` yielded an IC50 (Pantothenate synthetase) of 150 nM.
Molecule `N#Cc1cncnc1N` has an IC50 (Pantothenate synthetase) of 340 nM.
`O=C(O)c1ccccc1Nc1cccc(C(F)(F)F)c1` [FLUFENAMIC ACID] was tested, and the Kd [3] was 73000 nM.
